ChEMBL document CHEMBL1201862, “PubChem BioAssay data set” (2004)
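Values below derive from 48-hour exposures of cells grown in 96-well plates, with endpoints linearly interpolated between the two concentrations bracketing the appropriate inhibition level. GI50 is the concentration that inhibits growth by half.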 Calls of active or inactive are those of the source. Rule as the data show it: active = GI50 up to about 1.1 µM and inactive = higher.

Assays:
Assay in all cases: NCI anticancer screen, dose series, 48 h
[1] = system: SN12C
[2] = system: OVCAR-3
[3] = system: Hs-578T
[4] = system: UACC-257
[5] = system: SW-620
[6] = system: HT-29
[7] = system: HCT-116
[8] = system: RXF 393
[9] = system: NCI-H460
[10] = system: TK-10
[11] = system: NCI/ADR-RES
[12] = system: KM12
[13] = system: T47D
[14] = system: ACHN
[15] = system: MDA-N
[16] = system: SK-MEL-2
[17] = system: SR
[18] = system: MOLT-4
[19] = system: OVCAR-4
[20] = system: HL-60

| SMILES | GI50 [1] | GI50 [2] | GI50 [3] | GI50 [4] | GI50 [5] | GI50 [6] | GI50 [7] | GI50 [8] | GI50 [9] | GI50 [10] | GI50 [11] | GI50 [12] | GI50 [13] | GI50 [14] | GI50 [15] | GI50 [16] | GI50 [17] | GI50 [18] | GI50 [19] | GI50 [20] |
| --- | --- | --- | --- | --- | --- | --- | --- | --- | --- | --- | --- | --- | --- | --- | --- | --- | --- | --- | --- | --- |
| O=c1c(S(=O)(=O)Oc2ccccc2)coc2cc(F)ccc12 | > 100 µM (inactive) | > 100 µM (inactive) | 26.2 µM (inactive) | > 100 µM (inactive) | > 100 µM (inactive) | > 100 µM (inactive) | > 100 µM (inactive) | 36.1 µM (inactive) | > 100 µM (inactive) | > 100 µM (inactive) | 32.4 µM (inactive) | > 100 µM (inactive) | 55 µM (inactive) | > 100 µM (inactive) | > 100 µM (inactive) | 46.8 µM (inactive) | > 100 µM (inactive) | > 100 µM (inactive) | > 100 µM (inactive) | – |
| CCOC(=O)C(NC(=O)c1ccccc1)(Nc1ccc(S(=O)(=O)Nc2ncccn2)cc1)C(F)(F)F (centres undefined) | > 100 µM (inactive) | > 100 µM (inactive) | > 100 µM (inactive) | > 100 µM (inactive) | > 100 µM (inactive) | > 100 µM (inactive) | > 100 µM (inactive) | > 100 µM (inactive) | > 100 µM (inactive) | > 100 µM (inactive) | > 100 µM (inactive) | > 100 µM (inactive) | > 100 µM (inactive) | > 100 µM (inactive) | > 100 µM (inactive) | > 100 µM (inactive) | > 100 µM (inactive) | > 100 µM (inactive) | > 100 µM (inactive) | > 100 µM (inactive) |
| CC(=O)OCOC(=O)CN(CC(=O)OCOC(C)=O)Cc1cc2c(cc1OC(C)=O)Oc1cc(OC(C)=O)c(CN(CC(=O)OCOC(C)=O)CC(=O)OCOC(C)=O)cc1C21OC(=O)c2ccccc21 | 1.13 µM (inactive) | 0.92 µM (active) | 0.345 µM (active) | 0.344 µM (active) | 0.759 µM (active) | 0.483 µM (active) | 0.303 µM (active) | 0.34 µM (active) | 0.366 µM (active) | 0.741 µM (active) | 11 µM (inactive) | – | 1.4 µM (inactive) | 1.38 µM (inactive) | 0.309 µM (active) | 0.369 µM (active) | 0.016 µM (active) | 0.241 µM (active) | 0.998 µM (active) | 0.01 µM (active) |
| Cc1ccc(C(=O)C#Cc2cn(C3CC(O)C(CO)O3)c(=O)[nH]c2=O)cc1 (centres undefined) | > 100 µM (inactive) | 26.2 µM (inactive) | 95.1 µM (inactive) | > 100 µM (inactive) | 31 µM (inactive) | > 100 µM (inactive) | 62.2 µM (inactive) | > 100 µM (inactive) | > 100 µM (inactive) | > 100 µM (inactive) | > 100 µM (inactive) | > 100 µM (inactive) | 23.6 µM (inactive) | > 100 µM (inactive) | > 100 µM (inactive) | > 100 µM (inactive) | 35.2 µM (inactive) | – | 95.9 µM (inactive) | – |
| CNN1C(=O)c2c(C)c(C)c(C#N)c(N)c2C1=O | > 100 µM (inactive) | > 100 µM (inactive) | > 100 µM (inactive) | > 100 µM (inactive) | > 100 µM (inactive) | – | > 100 µM (inactive) | 40.8 µM (inactive) | > 100 µM (inactive) | > 100 µM (inactive) | > 100 µM (inactive) | > 100 µM (inactive) | > 100 µM (inactive) | > 100 µM (inactive) | > 100 µM (inactive) | > 100 µM (inactive) | > 100 µM (inactive) | > 100 µM (inactive) | > 100 µM (inactive) | > 100 µM (inactive) |
| CCOC(=O)c1c(SC(=O)C(C)(C)Oc2ccc(Cl)cc2)n(-c2ccccc2)c(=S)n(-c2ccccc2)c1=O | 25.2 µM (inactive) | 32.1 µM (inactive) | 26.9 µM (inactive) | > 100 µM (inactive) | 22.6 µM (inactive) | 27.4 µM (inactive) | 22.4 µM (inactive) | 25.1 µM (inactive) | 22.1 µM (inactive) | 89.5 µM (inactive) | 58.6 µM (inactive) | 24.8 µM (inactive) | 84.5 µM (inactive) | 23.3 µM (inactive) | 48.8 µM (inactive) | – | 23.9 µM (inactive) | 24.9 µM (inactive) | 34.4 µM (inactive) | 19.5 µM (inactive) |
| COc1ccc2c(C)cc(N/N=C(\C)C=O)nc2c1 | 11.2 µM (inactive) | 2.25 µM (inactive) | 15.5 µM (inactive) | 15.8 µM (inactive) | 7.57 µM (inactive) | 12.2 µM (inactive) | 11 µM (inactive) | 10.6 µM (inactive) | 8.99 µM (inactive) | 15.7 µM (inactive) | 11.7 µM (inactive) | 12.3 µM (inactive) | 15.5 µM (inactive) | 15.6 µM (inactive) | 10.8 µM (inactive) | 13.4 µM (inactive) | 1.64 µM (inactive) | 4.51 µM (inactive) | 11.2 µM (inactive) | – |
| NC(=O)c1cccc(OCC(O)CO)c1 (centres undefined) | > 100 µM (inactive) | > 100 µM (inactive) | > 100 µM (inactive) | > 100 µM (inactive) | > 100 µM (inactive) | > 100 µM (inactive) | > 100 µM (inactive) | – | > 100 µM (inactive) | > 100 µM (inactive) | > 100 µM (inactive) | > 100 µM (inactive) | > 100 µM (inactive) | > 100 µM (inactive) | > 100 µM (inactive) | > 100 µM (inactive) | > 100 µM (inactive) | > 100 µM (inactive) | > 100 µM (inactive) | > 100 µM (inactive) |
| CC(C)=Cc1cc(C)c2c(O)cc(C)c3c2c1C(C)=C(O)C3=O | 32.9 µM (inactive) | 20.6 µM (inactive) | 27 µM (inactive) | 36.6 µM (inactive) | 31.5 µM (inactive) | 14.9 µM (inactive) | 17.7 µM (inactive) | – | 21.2 µM (inactive) | – | 30.1 µM (inactive) | 20.5 µM (inactive) | 21.2 µM (inactive) | 25.5 µM (inactive) | 33 µM (inactive) | 22.9 µM (inactive) | 35.3 µM (inactive) | 25.8 µM (inactive) | – | 29.9 µM (inactive) |
| COc1ccc2oc(OC)c(CC=C(C)C)c(=O)c2c1C | > 100 µM (inactive) | > 100 µM (inactive) | > 100 µM (inactive) | > 100 µM (inactive) | > 100 µM (inactive) | > 100 µM (inactive) | > 100 µM (inactive) | – | > 100 µM (inactive) | > 100 µM (inactive) | > 100 µM (inactive) | > 100 µM (inactive) | > 100 µM (inactive) | > 100 µM (inactive) | > 100 µM (inactive) | > 100 µM (inactive) | > 100 µM (inactive) | > 100 µM (inactive) | – | > 100 µM (inactive) |
| CN(C)CCNc1nc2c(c(=O)n(C)c(=O)n2C)n1C | > 100 µM (inactive) | > 100 µM (inactive) | > 100 µM (inactive) | > 100 µM (inactive) | > 100 µM (inactive) | > 100 µM (inactive) | > 100 µM (inactive) | > 100 µM (inactive) | > 100 µM (inactive) | > 100 µM (inactive) | > 100 µM (inactive) | > 100 µM (inactive) | > 100 µM (inactive) | > 100 µM (inactive) | > 100 µM (inactive) | – | > 100 µM (inactive) | > 100 µM (inactive) | > 100 µM (inactive) | > 100 µM (inactive) |
| COc1ccc(-c2cc(C3CC3)nc(SCC(=O)O)c2C#N)cc1 | > 100 µM (inactive) | 83.2 µM (inactive) | 84.3 µM (inactive) | > 100 µM (inactive) | > 100 µM (inactive) | > 100 µM (inactive) | > 100 µM (inactive) | 62.8 µM (inactive) | 52.1 µM (inactive) | > 100 µM (inactive) | > 100 µM (inactive) | > 100 µM (inactive) | > 100 µM (inactive) | > 100 µM (inactive) | > 100 µM (inactive) | > 100 µM (inactive) | 55.8 µM (inactive) | 60.3 µM (inactive) | 79.8 µM (inactive) | 54.5 µM (inactive) |
| COC1=C(Cl)C(=O)c2c(O)ccc(O)c2C1=O | 1.31 µM (inactive) | 0.476 µM (active) | 1.11 µM (active) | 1.77 µM (inactive) | 0.1 µM (active) | 3.15 µM (inactive) | 0.536 µM (active) | 1.3 µM (inactive) | 4.44 µM (inactive) | 1.05 µM (active) | 0.843 µM (active) | 6.17 µM (inactive) | 1.03 µM (active) | 1.02 µM (active) | 2.2 µM (inactive) | 0.499 µM (active) | 0.227 µM (active) | 0.0372 µM (active) | 2.07 µM (inactive) | 0.0393 µM (active) |
| CCCCOc1ccc(S(=O)(=O)N/C(=N\O)Nc2ccc(Cl)cc2)cc1 | 17.3 µM (inactive) | 14.9 µM (inactive) | 23.2 µM (inactive) | 15.5 µM (inactive) | 17.5 µM (inactive) | 17.2 µM (inactive) | 16.9 µM (inactive) | 15.2 µM (inactive) | 15.4 µM (inactive) | 15 µM (inactive) | 15.8 µM (inactive) | 16.6 µM (inactive) | 6.64 µM (inactive) | 14.9 µM (inactive) | 17.7 µM (inactive) | 16.3 µM (inactive) | 11 µM (inactive) | 10.8 µM (inactive) | 10.8 µM (inactive) | – |
| CN(C)CCn1c(=O)c2ccc(NCCN3CCNCC3)c3c(=O)c4ccccc4n(c1=O)c23 | 1.47 µM (inactive) | 5.05 µM (inactive) | 3.04 µM (inactive) | 4.07 µM (inactive) | 0.378 µM (active) | 0.82 µM (active) | 0.692 µM (active) | – | 0.586 µM (active) | 4.86 µM (inactive) | 9.93 µM (inactive) | 1.63 µM (inactive) | 9.68 µM (inactive) | 1.27 µM (inactive) | 3.68 µM (inactive) | 2.56 µM (inactive) | 0.0776 µM (active) | 0.0294 µM (active) | 5.69 µM (inactive) | 2.59 µM (inactive) |
